SMILES strings stand for the structures.

Test [1] deals with Beta-1 adrenergic receptor (Homo sapiens, UniProt P08588). It is filed as functional.
The target of test [2] is Histamine H1 receptor (Homo sapiens, UniProt P35367).
For test [3], the target named is T1, Adenosine receptor A1 (Homo sapiens, UniProt P30542).
T1 sequence (P30542 whole entry): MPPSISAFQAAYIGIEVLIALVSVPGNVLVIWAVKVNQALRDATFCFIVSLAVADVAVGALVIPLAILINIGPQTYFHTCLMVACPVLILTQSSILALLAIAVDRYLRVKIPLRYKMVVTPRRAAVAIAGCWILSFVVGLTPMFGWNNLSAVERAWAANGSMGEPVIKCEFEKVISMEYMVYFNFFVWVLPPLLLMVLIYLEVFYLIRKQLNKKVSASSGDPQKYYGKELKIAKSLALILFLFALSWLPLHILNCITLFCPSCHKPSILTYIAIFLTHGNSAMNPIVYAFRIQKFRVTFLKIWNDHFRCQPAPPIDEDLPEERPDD

Test [4] deals with T2, 5-hydroxytryptamine receptor 1A (Homo sapiens, UniProt P08908).
T2 sequence (P08908 whole entry): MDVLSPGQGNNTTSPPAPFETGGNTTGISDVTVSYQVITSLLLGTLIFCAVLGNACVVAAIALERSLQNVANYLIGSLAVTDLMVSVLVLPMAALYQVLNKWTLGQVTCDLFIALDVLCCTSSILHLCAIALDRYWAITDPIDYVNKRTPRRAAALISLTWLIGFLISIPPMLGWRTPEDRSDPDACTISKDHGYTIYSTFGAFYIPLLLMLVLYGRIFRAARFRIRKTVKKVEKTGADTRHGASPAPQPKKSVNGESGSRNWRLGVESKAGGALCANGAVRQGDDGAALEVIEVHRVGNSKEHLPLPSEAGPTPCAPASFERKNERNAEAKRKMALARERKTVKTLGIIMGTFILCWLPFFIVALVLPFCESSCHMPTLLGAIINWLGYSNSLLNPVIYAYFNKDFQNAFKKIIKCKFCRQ
The class given is functional, cell-based.

Test [5] has as its target T3, Progesterone receptor (Homo sapiens, UniProt P06401).
T3 sequence (P06401 whole entry): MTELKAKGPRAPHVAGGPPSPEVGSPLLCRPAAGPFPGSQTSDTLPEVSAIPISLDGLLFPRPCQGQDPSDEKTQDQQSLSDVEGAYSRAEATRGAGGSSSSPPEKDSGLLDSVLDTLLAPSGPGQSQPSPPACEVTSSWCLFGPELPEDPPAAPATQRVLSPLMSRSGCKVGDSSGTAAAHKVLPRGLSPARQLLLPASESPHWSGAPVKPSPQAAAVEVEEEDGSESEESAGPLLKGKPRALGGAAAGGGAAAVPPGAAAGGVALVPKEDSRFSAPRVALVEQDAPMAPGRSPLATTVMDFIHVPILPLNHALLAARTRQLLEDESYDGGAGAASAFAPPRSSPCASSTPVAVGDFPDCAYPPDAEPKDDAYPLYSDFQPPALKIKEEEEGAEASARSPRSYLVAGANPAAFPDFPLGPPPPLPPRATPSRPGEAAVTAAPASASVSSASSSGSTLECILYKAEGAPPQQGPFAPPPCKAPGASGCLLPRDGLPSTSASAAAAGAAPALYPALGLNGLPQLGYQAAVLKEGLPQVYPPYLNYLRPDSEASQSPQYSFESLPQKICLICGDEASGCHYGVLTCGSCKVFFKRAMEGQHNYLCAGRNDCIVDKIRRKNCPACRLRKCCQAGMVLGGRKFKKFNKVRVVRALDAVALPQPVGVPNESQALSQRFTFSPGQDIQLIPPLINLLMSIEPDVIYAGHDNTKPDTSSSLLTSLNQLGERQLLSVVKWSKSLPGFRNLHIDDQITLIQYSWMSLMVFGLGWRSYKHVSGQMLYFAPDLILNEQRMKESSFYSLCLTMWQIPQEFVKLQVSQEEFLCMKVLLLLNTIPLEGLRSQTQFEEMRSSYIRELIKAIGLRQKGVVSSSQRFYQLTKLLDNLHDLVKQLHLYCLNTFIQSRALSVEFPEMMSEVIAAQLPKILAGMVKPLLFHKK
It is filed as functional.

For test [6], the target named is T4, 5-hydroxytryptamine receptor 2C (Homo sapiens, UniProt P28335).
T4 sequence (P28335 whole entry): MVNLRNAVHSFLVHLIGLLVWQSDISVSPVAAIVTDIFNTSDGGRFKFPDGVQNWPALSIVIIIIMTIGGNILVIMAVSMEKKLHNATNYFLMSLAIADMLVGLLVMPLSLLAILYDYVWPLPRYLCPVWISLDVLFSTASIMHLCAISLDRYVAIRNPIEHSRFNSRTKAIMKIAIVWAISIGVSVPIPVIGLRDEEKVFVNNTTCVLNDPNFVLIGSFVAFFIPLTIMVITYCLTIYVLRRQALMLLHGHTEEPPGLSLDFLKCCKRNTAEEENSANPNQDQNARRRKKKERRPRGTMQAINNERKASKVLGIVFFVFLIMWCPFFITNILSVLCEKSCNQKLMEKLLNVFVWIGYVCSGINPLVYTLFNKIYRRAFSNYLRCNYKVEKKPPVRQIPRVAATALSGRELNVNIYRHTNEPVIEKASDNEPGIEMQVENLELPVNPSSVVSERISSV

In test [7] the target is T5, Alpha-2B adrenergic receptor (Homo sapiens, UniProt P18089).
T5 sequence (P18089 whole entry): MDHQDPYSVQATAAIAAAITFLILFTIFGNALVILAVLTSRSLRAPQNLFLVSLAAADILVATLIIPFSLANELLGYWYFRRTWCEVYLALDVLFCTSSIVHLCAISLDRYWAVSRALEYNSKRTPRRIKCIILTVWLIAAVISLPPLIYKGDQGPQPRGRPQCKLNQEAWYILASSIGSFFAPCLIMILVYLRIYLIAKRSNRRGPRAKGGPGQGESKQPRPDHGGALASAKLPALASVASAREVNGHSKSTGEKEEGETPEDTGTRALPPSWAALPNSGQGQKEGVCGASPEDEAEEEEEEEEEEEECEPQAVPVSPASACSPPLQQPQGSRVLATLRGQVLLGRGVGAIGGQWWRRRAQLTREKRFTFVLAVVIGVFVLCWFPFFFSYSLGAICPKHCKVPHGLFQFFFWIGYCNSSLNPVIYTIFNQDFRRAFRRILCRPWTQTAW

The target in test [8] is T3, Progesterone receptor. The class given is functional. The source holds these as a separate data set.
Note: assay procedure not described here.

Histamine H1 receptor, sequence (P35367 whole entry): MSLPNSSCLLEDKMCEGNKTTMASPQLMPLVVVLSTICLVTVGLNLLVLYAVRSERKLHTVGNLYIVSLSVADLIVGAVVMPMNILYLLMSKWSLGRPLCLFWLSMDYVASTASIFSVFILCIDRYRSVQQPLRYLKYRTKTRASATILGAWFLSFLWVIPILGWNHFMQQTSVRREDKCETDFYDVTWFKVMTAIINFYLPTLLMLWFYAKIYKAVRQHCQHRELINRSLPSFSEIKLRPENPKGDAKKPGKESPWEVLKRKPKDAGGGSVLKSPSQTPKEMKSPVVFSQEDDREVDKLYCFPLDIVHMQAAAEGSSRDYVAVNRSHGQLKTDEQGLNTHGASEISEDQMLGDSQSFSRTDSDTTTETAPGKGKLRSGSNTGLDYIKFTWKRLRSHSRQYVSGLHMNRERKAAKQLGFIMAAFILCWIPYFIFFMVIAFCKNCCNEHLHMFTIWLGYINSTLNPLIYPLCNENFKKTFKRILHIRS
Beta-1 adrenergic receptor, sequence (P08588 whole entry): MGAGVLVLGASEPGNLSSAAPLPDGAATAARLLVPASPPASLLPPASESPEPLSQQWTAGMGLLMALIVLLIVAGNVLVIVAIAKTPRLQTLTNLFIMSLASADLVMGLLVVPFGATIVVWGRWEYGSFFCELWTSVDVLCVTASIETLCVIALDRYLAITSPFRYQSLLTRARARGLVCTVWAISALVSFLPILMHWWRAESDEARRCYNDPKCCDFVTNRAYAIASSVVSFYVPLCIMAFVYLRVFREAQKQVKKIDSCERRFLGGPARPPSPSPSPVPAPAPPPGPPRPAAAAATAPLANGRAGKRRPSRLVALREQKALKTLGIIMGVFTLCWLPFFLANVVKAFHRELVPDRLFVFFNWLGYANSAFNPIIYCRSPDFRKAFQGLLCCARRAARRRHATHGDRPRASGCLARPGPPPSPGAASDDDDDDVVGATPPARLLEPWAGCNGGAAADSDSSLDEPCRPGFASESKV

Broadly, the AC50 is the concentration at which the activity in the assay is half-maximal. Higher therefore signals weaker potency. For `CN1c2ccccc2C(NCCCCCCC(=O)O)c2ccc(Cl)cc2S1(=O)=O` (stereo unspecified) [TIANEPTINE], the AC50 in test [1], in test [2], in test [3], in test [4], in test [5] and in test [6] was greater than 30 µM throughout. The AC50 in test [7] and in test [8] was greater than 30 µM in each case.

With `C=CC(N)CCC(=O)O` (stereo unspecified) [VIGABATRIN], the concentration at half-maximal activity (AC50) in test [1] is greater than 10 µM; in test [2] it was greater than 10 µM; in test [3], greater than 10 µM; in test [4], greater than 10 µM; in test [5], greater than 10 µM; in test [6], greater than 30 µM. The AC50 in test [7] and in test [8] was greater than 10 µM in each case.

The values above are taken from ChEMBL document CHEMBL5291721, “A preclinical secondary pharmacology resource illuminates target-adverse drug reaction associations of marketed drugs” (Nat Commun, 2023).
